The results in this text go back to US20120015961A1, “ISOTHIOUREA DERIVATIVES OR ISOUREA DERIVATIVES HAVING BACE1 INHIBITORY ACTIVITY” (SHIONOGI & CO., LTD., priority 2009, published 2012).

The target of one data set is T1, Recombinant human BACE1 (Homo sapiens, UniProt P56817).
T1 construct: purchased R&D Systems
Kind of data set: Assay of BACE1 inhibiting activity. It is filed as biochemical. Conditions: 50% inhibitory concentration against enzymatic activity, pH 5.0, 30° C., 3 hours. In a few lines: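 Recombinant human BACE1 (7.4 nM) incubated with 18 nM biotinylated Eu-cryptate peptide substrate in pH 5.0 sodium acetate, 3 h at 30 °C. Streptavidin-XL665 added, 1 h; TR-FRET 665/620 nm ratio gives activity, from which IC50 is calculated.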

Data set [1] deals with Neuroblastoma SH-SY5Y cells (SH/APPwt) with human wild-type β-APP excessively expressed. The data set can be described thus: Measurement of β-amyloid (Aβ) production inhibitory effect in cell. It is filed as cell-based. As to conditions: Homo sapiens, SH-SY5Y, 24 h, amount needed to inhibit Aβ production by 50%, 24 hours incubation, Amyloid β1-40 HTRF. In a few lines: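 SH-SY5Y cells overexpressing human wild-type β-APP exposed to compound for 24 h at 37 °C in 1% final DMSO. Secreted Aβ1-40 in supernatant measured by HTRF (overnight at 4 °C; 665/620 nm ratio). IC50 derived from at least six concentrations.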

The subject of data set [2] is Salmonella typhimurium (TA98 and TA100 strain). Kind of data set: FAT test. The data set is classed as cell-based. Set-up: key: (−) means that mutagenicity is negative; (+) means positive. Conditions: TA98 and TA100, with and without metabolic activation system. The procedure: Each 20 μL of freeze-stored Salmonella typhimurium (TA98 and TA100 strain) was inoculated in 10 mL of liquid nutrient medium (2.5% Oxoid nutrient broth No. 2), and the cultures were incubated at 37° C. under shaking for 10 hours. 9 mL of TA98 culture was centrifuged (2000×g, 10 minutes) to remove medium, and the bacteria was suspended in 9 mL of Micro F buffer (K2HPO4: 3.5 g/L, KH2PO4: 1 g/L, (NH4)2SO4: 1 g/L, trisodium citrate dehydrate: 0.25 g/L, MgSO4.7H2O: 0.1 g/L), and the suspension was added to 110 mL of Exposure medium (Micro F buffer containing Biotin: 8 μg/mL, histidine: 0.2 μg/mL, glucose: 8 mg/mL). 3.16 mL of TA100 culture was added to 120 mL of Exposure medium to prepare the test bacterial solution. […] The number of the yellow wells among the 48 total wells per dose was counted, and evaluated the mutagenicity by comparing with the negative control group. […]

As a reminder, the pIC50 is −log10 of the IC50, conventionally taken in molar units.

Molecules are shown by their SMILES. pIC50: −log10 of the molar value.

T1 sequence (P56817 46-501): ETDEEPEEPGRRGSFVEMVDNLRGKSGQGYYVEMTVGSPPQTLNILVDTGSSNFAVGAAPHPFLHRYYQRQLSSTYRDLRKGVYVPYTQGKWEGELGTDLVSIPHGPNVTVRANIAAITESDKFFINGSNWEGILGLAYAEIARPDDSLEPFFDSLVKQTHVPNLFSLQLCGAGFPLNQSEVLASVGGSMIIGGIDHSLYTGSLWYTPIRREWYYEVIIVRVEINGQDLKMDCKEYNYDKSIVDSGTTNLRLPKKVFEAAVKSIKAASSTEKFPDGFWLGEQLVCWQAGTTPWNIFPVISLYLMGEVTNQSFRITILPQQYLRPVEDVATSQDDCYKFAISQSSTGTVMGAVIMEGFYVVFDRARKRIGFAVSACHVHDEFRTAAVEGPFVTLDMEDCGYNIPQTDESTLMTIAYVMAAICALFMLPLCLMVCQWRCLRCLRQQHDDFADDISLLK

As for `CO/C(N)=N\C1(c2cccc(NC(=O)c3ccc(C#N)cn3)c2)CC1` [Compound 44], the pIC50 (on Recombinant human BACE1; in data set [1]) was at least 6.00 throughout. For the same compound, the mutagenicity entry in data set [2] is “(−)”.
